From US20070043049A1, “Substituted heterocyclic diarylamine analogues” (Neurogen Corporation, priority 2003, published 2007)

Target: T1, human capsaicin receptor (Homo sapiens, UniProt Q8NER1)
T1 construct: pBK-CMV expression construct encoding the full length human capsaicin receptor; expressed in transfected cells
Assay: Calcium mobilization assay, determination of antagonist activity (Example 6)
Type: cell-based
Conditions: 50% decrease in fluorescence response of cells expressing human capsaicin receptor exposed to capsaicin
Method in brief: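 HEK293 cells stably expressing full-length human capsaicin receptor, Fluo-3 AM loaded, preincubated with compound 0.5–6 h at room temperature in KRH buffer pH 7.4. Challenged with capsaicin at its EC50; FLIPR fluorescence read. IC50 is concentration halving the capsaicin-induced calcium response.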

T1 sequence (Q8NER1 whole entry): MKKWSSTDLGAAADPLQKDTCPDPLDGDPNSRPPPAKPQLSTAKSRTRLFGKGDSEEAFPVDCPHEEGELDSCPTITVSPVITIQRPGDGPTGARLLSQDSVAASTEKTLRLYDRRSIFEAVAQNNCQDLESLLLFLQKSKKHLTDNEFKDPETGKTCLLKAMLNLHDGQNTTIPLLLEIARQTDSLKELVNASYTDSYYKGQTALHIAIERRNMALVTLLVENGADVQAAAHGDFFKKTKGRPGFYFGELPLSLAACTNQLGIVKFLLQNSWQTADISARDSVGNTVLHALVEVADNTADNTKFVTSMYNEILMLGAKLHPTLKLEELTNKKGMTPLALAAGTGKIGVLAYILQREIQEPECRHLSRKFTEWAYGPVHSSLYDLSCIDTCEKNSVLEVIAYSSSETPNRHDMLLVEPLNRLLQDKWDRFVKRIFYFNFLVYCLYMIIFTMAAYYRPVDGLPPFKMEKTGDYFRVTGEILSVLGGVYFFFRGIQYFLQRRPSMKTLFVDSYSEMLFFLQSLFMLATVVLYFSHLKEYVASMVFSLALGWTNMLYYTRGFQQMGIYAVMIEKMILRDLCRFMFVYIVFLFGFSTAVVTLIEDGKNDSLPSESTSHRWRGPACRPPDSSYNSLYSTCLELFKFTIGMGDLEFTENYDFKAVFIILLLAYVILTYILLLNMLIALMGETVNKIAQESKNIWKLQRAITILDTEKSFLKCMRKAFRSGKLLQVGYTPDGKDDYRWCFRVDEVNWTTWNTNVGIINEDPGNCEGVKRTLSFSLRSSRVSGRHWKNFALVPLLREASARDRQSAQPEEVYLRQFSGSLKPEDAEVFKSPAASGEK

IC50, ≤ 1000 nM:
Fc1ccc(Nc2nc(N3CCOCC3)nc(N3CCN(c4ncccc4Cl)CC3)n2)cc1F [Compound 68, {4-[4-(3-Chloro-pyridin-2-yl)-piperazin-1-yl]-6-morpholin-4-yl-[1,3,5]triazin-2-yl}-(3,4-difluoro-phenyl)-amine]
Fc1ccc(Nc2nc(N3CCOCC3)nc(N3CCN(c4ncccc4C(F)(F)F)CC3)n2)cc1F [Compound 69, (3,4-Difluoro-phenyl)-{4-morpholin-4-yl-6-[4-(3-trifluoromethyl-pyridin-2-yl)-piperazin-1-yl]-[1,3,5]triazin-2-yl}-amine]
Fc1cccc(Nc2nc(N3CCCCC3)nc(N3CCN(c4ncccc4Cl)CC3)n2)c1 [Compound 70, {4-[4-(3-Chloro-pyridin-2-yl)-piperazin-1-yl]-6-piperidin-1-yl-[1,3,5]triazin-2-yl}-(3-fluoro-phenyl)-amine]
CCN(CC)c1nc(Nc2cccc(F)c2)nc(N2CCN(c3ncccc3Cl)CC2)n1 [Compound 71, 6-[4-(3-Chloro-pyridin-2-yl)-piperazin-1-yl]-N,N-diethyl-N′-(3-fluoro-phenyl)-[1,3,5]triazine-2,4-diamine]
CCN(C)c1nc(Nc2cccc(F)c2)nc(N2CCN(c3ncccc3Cl)CC2)n1 [Compound 72, 6-[4-(3-Chloro-pyridin-2-yl)-piperazin-1-yl]-N-ethyl-N′-(3-fluoro-phenyl)-N-methyl-[1,3,5]triazine-2,4-diamine]
Fc1cccc(Nc2nc(N3CCCC3)nc(N3CCN(c4ncccc4Cl)CC3)n2)c1 [Compound 73, {4-[4-(3-Chloro-pyridin-2-yl)-piperazin-1-yl]-6-pyrrolidin-1-yl-[1,3,5]triazin-2-yl}-(3-fluoro-phenyl)-amine]
CCCN(C)c1nc(Nc2cccc(F)c2)nc(N2CCN(c3ncccc3Cl)CC2)n1 [Compound 74, 6-[4-(3-Chloro-pyridin-2-yl)-piperazin-1-yl]-N-(3-fluoro-phenyl)-N′-methyl-N′-propyl-[1,3,5]triazine-2,4-diamine]
CCCCN(C)c1nc(Nc2cccc(F)c2)nc(N2CCN(c3ncccc3Cl)CC2)n1 [Compound 75, N-Butyl-6-[4-(3-chloro-pyridin-2-yl)-piperazin-1-yl]-N′-(3-fluoro-phenyl)-N-methyl-[1,3,5]triazine-2,4-diamine]
CN(C)c1nc(Nc2cccc(F)c2)nc(N2CCN(c3ncccc3Cl)CC2)n1 [Compound 76, 6-[4-(3-Chloro-pyridin-2-yl)-piperazin-1-yl]-N-(3-fluoro-phenyl)-N′,N′-dimethyl-[1,3,5]triazine-2,4-diamine]
CC1CCCN1c1nc(Nc2cccc(F)c2)nc(N2CCN(c3ncccc3Cl)CC2)n1 (centres unmarked) [Compound 77, [4-[4-(3-Chloro-pyridin-2-yl)-piperazin-1-yl]-6-(2-methyl-pyrrolidin-1-yl)-[1,3,5]triazin-2-yl]-(3-fluoro-phenyl)-amine]
Fc1cccc(Nc2nc(N3CCCCCC3)nc(N3CCN(c4ncccc4Cl)CC3)n2)c1 [Compound 78, {4-Azepan-1-yl-6-[4-(3-chloro-pyridin-2-yl)-piperazin-1-yl]-[1,3,5]triazin-2-yl}-(3-fluoro-phenyl)-amine]
CC(C)N(C)c1nc(Nc2cccc(F)c2)nc(N2CCN(c3ncccc3Cl)CC2)n1 [Compound 79, 6-[4-(3-Chloro-pyridin-2-yl)-piperazin-1-yl]-N-(3-fluoro-phenyl)-N′-isopropyl-N′-methyl-[1,3,5]triazine-2,4-diamine]
CCN(c1nc(Nc2cccc(F)c2)nc(N2CCN(c3ncccc3Cl)CC2)n1)C(C)C [Compound 80, 6-[4-(3-Chloro-pyridin-2-yl)-piperazin-1-yl]-N-ethyl-N′-(3-fluoro-phenyl)-N-isopropyl-[1,3,5]triazine-2,4-diamine]
CCCNc1nc(Nc2cccc(F)c2)nc(N2CCN(c3ncccc3Cl)CC2)n1 [Compound 81, 6-[4-(3-Chloro-pyridin-2-yl)-piperazin-1-yl]-N-(3-fluoro-phenyl)-N′-propyl-[1,3,5]triazine-2,4-diamine]
Cc1nc(Nc2ccc(C(F)(F)F)cc2)nc(N2CCN(c3ncccc3Cl)CC2)n1 [Compound 82, {4-[4-(3-Chloro-pyridin-2-yl)-piperazin-1-yl]-6-methyl-[1,3,5]triazin-2-yl}-(4-trifluoromethyl-phenyl)-amine]
Fc1ccc(Nc2nc(N3CCOCC3)cc(N3CCN(c4ncccc4C(F)(F)F)CC3)n2)cc1 [Compound 83, (4-Fluoro-phenyl)-{4-morpholin-4-yl-6-[4-(3-trifluoromethyl-pyridin-2-yl)-piperazin-1-yl]-pyrimidin-2-yl}-amine]
FC(F)(F)c1cccnc1N1CCN(c2cc(N3CCOCC3)nc(Nc3cccc(Cl)c3)n2)CC1 [Compound 84, (3-Chloro-phenyl)-{4-morpholin-4-yl-6-[4-(3-trifluoromethyl-pyridin-2-yl)-piperazin-1-yl]-pyrimidin-2-yl}-amine]
Cc1ccccc1Nc1nc(N2CCOCC2)cc(N2CCN(c3ncccc3C(F)(F)F)CC2)n1 [Compound 85, {4-Morpholin-4-yl-6-[4-(3-trifluoromethyl-pyridin-2-yl)-piperazin-1-yl]pyrimidin-2-yl}-o-tolyl-amine]
Cc1cccc(Nc2nc(N3CCOCC3)cc(N3CCN(c4ncccc4C(F)(F)F)CC3)n2)c1 [Compound 86, {4-Morpholin-4-yl-6-[4-(3-trifluoromethyl-pyridin-2-yl)-piperazin-1-yl]-pyrimidin-2-yl}-m-tolyl-amine]
Cc1ccc(Nc2nc(N3CCOCC3)cc(N3CCN(c4ncccc4C(F)(F)F)CC3)n2)cc1 [Compound 87, {4-Morpholin-4-yl-6-[4-(3-trifluoromethyl-pyridin-2-yl)-piperazin-1-yl]-pyrimidin-2-yl}-p-tolyl-amine]
COc1cccc(Nc2nc(N3CCOCC3)cc(N3CCN(c4ncccc4C(F)(F)F)CC3)n2)c1 [Compound 88, (3-Methoxy-phenyl)-{4-morpholin-4-yl-6-[4-(3-trifluoromethyl-pyridin-2-yl)-piperazin-1-yl]-pyrimidin-2-yl}-amine]
COc1ccc(Nc2nc(N3CCOCC3)cc(N3CCN(c4ncccc4C(F)(F)F)CC3)n2)cc1 [Compound 89, (4-Methoxy-phenyl)-{4-morpholin-4-yl-6-[4-(3-trifluoromethyl-pyridin-2-yl)-piperazin-1-yl]-pyrimidin-2-yl}-amine]
CCN(CC)c1nc(Nc2ccc(F)cc2)nc(N2CCN(c3ncccc3Cl)CC2)n1 [Compound 90, 6-[4-(3-Chloro-pyridin-2-yl)-piperazin-1-yl]-N,N-diethyl-N′-(4-fluoro-phenyl)-[1,3,5]triazine-2,4-diamine]
CCN(CC)c1nc(Nc2ccc(F)c(F)c2)nc(N2CCN(c3ncccc3Cl)CC2)n1 [Compound 91, 6-[4-(3-Chloro-pyridin-2-yl)-piperazin-1-yl]-N-(3,4-difluoro-phenyl)-N′,N′-diethyl-[1,3,5]triazine-2,4-diamine]
CCN(CC)c1nc(Nc2cccc(Cl)c2)nc(N2CCN(c3ncccc3Cl)CC2)n1 [Compound 92, N-(3-Chloro-phenyl)-6-[4-(3-chloro-pyridin-2-yl)-piperazin-1-yl]-N′,N′-diethyl-[1,3,5]triazine-2,4-diamine]
CCN(CC)c1nc(Nc2cccc(OC)c2)nc(N2CCN(c3ncccc3Cl)CC2)n1 [Compound 93, 6-[4-(3-Chloro-pyridin-2-yl)-piperazin-1-yl]-N,N-diethyl-N′-(3-methoxy-phenyl)-[1,3,5]triazine-2,4-diamine]
CCN(CC)c1nc(Nc2ccc(F)cc2)nc(N2CCN(c3ccccn3)CC2)n1 [Compound 94, N,N-Diethyl-N′-(4-fluoro-phenyl)-6-(4-pyridin-2-yl-piperazin-1-yl)-[1,3,5]triazine-2,4-diamine]
CCN(CC)c1nc(Nc2ccc(F)c(F)c2)nc(N2CCN(c3ccccn3)CC2)n1 [Compound 95, N-(3,4-Difluoro-phenyl)-N′,N′-diethyl-6-(4-pyridin-2-yl-piperazin-1-yl)-[1,3,5]triazine-2,4-diamine]
FC(F)(F)c1ccc(Nc2nc(N3CCOCC3)nc(N3CCN(c4ncccc4Cl)CC3)n2)cc1 [Compound 96, {4-[4-(3-Chloro-pyridin-2-yl)-piperazin-1-yl]-6-morpholin-4-yl-[1,3,5]triazin-2-yl}-(4-trifluoromethyl-phenyl)-amine]
Clc1cccnc1N1CCN(c2nc(Nc3ccccc3)nc(N3CCOCC3)n2)CC1 [Compound 97, {4-[4-(3-Chloro-pyridin-2-yl)-piperazin-1-yl]-6-morpholin-4-yl-[1,3,5]triazin-2-yl}-phenyl-amine]
Fc1ccc(Nc2cc(N3CCN(c4ccccn4)CC3)nc(N3CCOCC3)n2)cc1 [Compound 98, (4-Fluoro-phenyl)-[2-morpholin-4-yl-6-(4-pyridin-2-yl-piperazin-1-yl)-pyrimidin-4-yl]-amine]
CCN(CC)c1nc(Nc2ccc(F)c(F)c2)nc(N2CCN(c3ncccc3C(F)(F)F)C[C@H]2C)n1 [Compound 99, N-(3,4-Difluoro-phenyl)-N′,N′-diethyl-6-[2-methyl-4-(3-trifluoromethyl-pyridin-2-yl)-piperazin-1-yl]-[1,3,5]triazine-2,4-diamine (R)]
